Measured values published in patent US20190270796A1, “THERAPEUTIC AGENT FOR PERIODONTITIS AND COMPOSTION FOR TREATING PERIODONTITIS” (NIHON UNIVERSITY, priority 2016, published 2019).

Tests used:
[1] = system: normal gingival fibroblasts; test: three-dimensional collagen gel culture system with normal gingival fibroblasts (Experimental Example 1); assay type: cell-based, human; details: day 5 of suspension culture, HGF 25 and 50 ng/mL, HGF-neutralizing antibody 20 μg/mL
Text: In addition, gingival fibroblasts with a low resolution of collagen gel (hereinafter, sometimes referred to as “normal gingival fibroblasts”) were used as controls. Gingival fibroblasts with which the contraction of collagen gel having a diameter of 35 mm remained to a diameter of about 10 mm were used as normal gingival fibroblasts.
In addition, the same collagen gel as the above-described collagen gel was produced for comparison except that the above-described normal gingival fibroblasts were used instead of the gingival fibroblasts which extremely decompose collagen gel.
Subsequently, each prepared collagen gel piece was incubated at 37° C. After 24 hours, each collagen gel piece was peeled off from a plate and was suspended (on day 1 of culture). Each test substance (HGF-neutralizing antibody and HGF) having the same concentration as that described above was added to a medium. Subsequently, suspension culture of collagen gel was continued at 37° C., and collagen gel was observed on day 5 after the start of the suspension culture.
FIGS. 2(a) to 2(h) are photographs of each collagen gel piece on day 5 after the start of the suspension culture. Each mass floating in each well in FIGS. 2(a) to 2(h) is collagen gel. FIGS. 2(a) to 2(d) show results of collagen gel containing gingival fibroblasts which extremely decompose collagen gel. […]

[2] = system: monkey gingival fibroblasts which extremely decompose collagen gel; test: three-dimensional collagen gel culture system with monkey gingival fibroblasts (Experimental Example 4); assay type: cell-based, Macaca fascicularis; details: HGF 50 ng/mL, HGF-neutralizing antibody 20 μg/mL
Text: Before clinical application of the therapeutic agent for periodontitis of the present invention to humans, it is necessary to conduct experiments using monkeys. An effect of an HGF-neutralizing antibody on degradation of collagen using gingival fibroblasts derived from a monkey naturally occurred periodontitis was examined using the same three-dimensional collagen gel culture system as in Experimental Example 1. Since it is difficult to culture gingival epithelial cells of monkeys, human gingival epithelial cells were used as gingival epithelial cells. Tissue of a gingiva piece derived from an euthanasia individual of a monkey (Macaca fascicularis, raised in Tsukuba Primate Research Center) naturally occurred periodontitis was cut, and then, the tissue pieces were allowed to stand on the bottom of a cell culture plate. Subsequently, outgrown cells from the tissue pieces were subcultured as a first generation to obtain monkey gingival fibroblasts. The obtained gingival fibroblasts were once cultured in the above-described three-dimensional collagen gel culture system to observe collagen resolution, and gingival fibroblasts which extremely decompose collagen gel (that is, with which collagen gel were degraded and contracted). […]

[3] = system: gingival fibroblasts which extremely decompose collagen gel, derived from a patient with periodontitis; test: three-dimensional collagen gel culture system, collagen degradation (Experimental Example 1); assay type: cell-based, human; details: day 5 of suspension culture; compared to control; HGF 50 ng/mL; HGF-neutralizing antibody 20 μg/mL
Protocol: First, a three-dimensional collagen gel culture system of gingival fibroblasts previously developed by the present inventors will be described with reference to FIGS. 1(a) to 1(d). In this culture system, it is possible to evaluate the influence of a test substance on degradation of collagen in periodontal tissues in vitro and to obtain results close to in vivo.
First, as shown in FIG. 1(a), gingival fibroblasts derived from a patient with periodontitis and a test substance are added into collagen gel, and the mixture is poured into a petri dish. Subsequently, the mixture is incubated at 37° C. for 30 minutes and the collagen gel is hardened. Subsequently, gingival epithelial cells derived from the patient with periodontitis are seeded on the hardened collagen gel and incubated overnight.
Subsequently, as shown in FIG. 1(b), the collagen gel is peeled off from the petri dish to make the collagen gel float. At this time, the test substance is also added into a medium in which the collagen gel floats. Subsequently, the suspension culture is continued for 5 days. Meanwhile, the collagen gel is degraded and contracts due to various factors produced by an interaction between the gingival fibroblasts and the gingival epithelial cells. […]
Subsequently, as shown in FIG. 1(c), the amount of residual collagen is quantitatively determined on day 5 of suspension culture. […]

[4] = system: gingival fibroblasts extremely decomposing collagen gel (PAF1, PAF2); test: weight of collagen gel after three-dimensional culture (Experimental Example 3); assay type: cell-based, human; details: HGF 50 ng/mL, HGF-neutralizing antibody 20 μg/mL; for weight of collagen gel: day 5 of suspension culture
Protocol: Cell matrix type I-A (Nitta Gelatin Inc.), 5×DMEM, a buffer solution for reconstitution (Nitta gelatin) were mixed with each other to prepare a collagen mixed solution. An HGF-neutralizing antibody (model “AB-294-NA”, R&D) was added to this collagen mixed solution so that the final concentration became 20 μg/mL. In addition, a sample containing no test substance (control) and a sample to which HGF (model “100-39”, PeproTech, Inc.) was added so that the final concentrations became 50 ng/mL were prepared for comparison.
Subsequently, the same gingival fibroblasts, which extremely decompose collagen gel, as in Experimental Example 1 were mixed with these collagen mixed solutions and seeded in a 6-well plate so that the cell density became 2.5×10^5 cells/well. Subsequently, the mixture was incubated at 37° C. for 30 minutes and the collagen gel was hardened. Two kinds of cells (hereinafter, referred to as “PAF1” and “PAF2”) were used as gingival fibroblasts extremely decomposing collagen gel.
Subsequently, the same gingival epithelial cells as in Experimental Example 1 were dispersed by trypsin treatment, and were then seeded on the above-described collagen gel at 2×10^5 cells/well to form a single layer of the epithelial cells.
Subsequently, each prepared collagen gel was incubated at 37° C. After 24 hours, each collagen gel piece was peeled off from a plate and was suspended (on day 1 of culture). HGF-neutralizing antibodies having the same concentration as that described above were added to a medium of a test group. Subsequently, suspension culture of collagen gel was continued at 37° C.
Collagen gel was collected on day 5 after the start of the suspension culture, and the weight thereof was measured. FIGS. 5(a) and 5(b) are photographs of collected collagen gel. […] In FIGS. 5(a) and 5(b), the “control” indicates control collagen gel, “HGF” indicates collagen gel to which HGF is added, and the “HGF-neutralizing antibody” indicates collagen gel to which an HGF-neutralizing antibody is added.

Substance: HGF: HGF (model “100-39”, PeproTech, Inc.), hepatocyte growth factor added for comparison
- difference in decomposition of collagen [1]: no difference
- degradation of collagen (observation of collagen gel) ([2]; monkey gingival fibroblasts with human gingival epithelial cells (SAF1, SAF2), day 5 of suspension culture, compared to controls): promoted
- vacuoles around cells (hematoxylin-eosin staining of thin section of collagen gel) ([2]; monkey gingival fibroblasts, SAF1): a vacuole is formed around the cell
- degradation of collagen (observation of collagen gel) [3]: clearly accelerated
- weight of collagen gel ([4]; PAF1, control 0.013 g): 0.011 g
- degradation of collagen gel ([4]; PAF1 and PAF2, compared to control collagen gel): remarkably accelerated
- weight of collagen gel ([4]; PAF2, control 0.034 g): 0.028 g
